In the supplement of paper PMC6045584:

Columns and labels:
Assay in all cases: area under dose-response curve of surviving fraction (unscaled, Aref=0) (surviving fraction x log10(nM)); higher = more resistant
Conditions in all cases: exposure time: 5 days; dose range 0.5-1000 nM
17-AAG = compound: C=CCNC1=C2C[C@@H](C)C[C@H](OC)[C@H](O)[C@@H](C)/C=C(\C)[C@H](OC(N)=O)[C@@H](OC)/C=C\C=C(/C)C(=O)NC(=CC1=O)C2=O [17-AAG]
How it was run: (§1)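 Tumour cell lines in 384-well plates were exposed for five days to eight inhibitor concentrations from 0.5 to 1000 nM. Viability was read by CellTiter-Glo luminescence, normalised to DMSO-only wells, in three screens per line. Dose-response survival curves were fitted to surviving fractions by 3-parameter logistic regression in the drc R package. Area under the curve is the unscaled activity area (Aref = 0) over log10 dose.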

[1] = compound: CCN(CC)CCCCNc1ncc2cc(-c3cc(OC)cc(OC)c3)c(NC(=O)NC(C)(C)C)nc2n1
How it was run: as §1

SALINOMYCIN = compound: CC[C@@H](C(=O)[C@@H](C)[C@@H](O)[C@H](C)[C@@H]1O[C@@H]([C@@H](CC)C(=O)O)CC[C@@H]1C)[C@H]1O[C@]2(C=C[C@@H](O)[C@]3(CC[C@@](C)([C@H]4CC[C@](O)(CC)[C@H](C)O4)O3)O2)[C@H](C)C[C@@H]1C [SALINOMYCIN]
How it was run: as §1

ABT-737 = compound: CN(C)CC[C@H](CSc1ccccc1)Nc1ccc(S(=O)(=O)NC(=O)c2ccc(N3CCN(Cc4ccccc4-c4ccc(Cl)cc4)CC3)cc2)cc1[N+](=O)[O-] [ABT-737]
How it was run: as §1

FLAVOPIRIDOL = compound: CN1CC[C@H](c2c(O)cc(O)c3c(=O)cc(-c4ccccc4Cl)oc23)[C@H](O)C1 [FLAVOPIRIDOL]
How it was run: as §1

2-METHOXYESTRADIOL = compound: COc1cc2c(cc1O)CC[C@@H]1[C@@H]2CC[C@]2(C)[C@@H](O)CC[C@@H]12 [2-METHOXYESTRADIOL]
How it was run: as §1

NUTLIN3 = compound: COc1ccc(C2=N[C@@H](c3ccc(Cl)cc3)[C@@H](c3ccc(Cl)cc3)N2C(=O)N2CCNC(=O)C2)c(OC(C)C)c1 [NUTLIN3]
How it was run: as §1

DOXORUBICIN = compound: COc1cccc2c1C(=O)c1c(O)c3c(c(O)c1C2=O)C[C@@](O)(C(=O)CO)C[C@@H]3O[C@H]1C[C@H](N)[C@H](O)[C@H](C)O1 [DOXORUBICIN]
How it was run: as §1

LAPATINIB = compound: CS(=O)(=O)CCNCc1ccc(-c2ccc3ncnc(Nc4ccc(OCc5cccc(F)c5)c(Cl)c4)c3c2)o1 [LAPATINIB]
How it was run: as §1

VISMODEGIB = compound: CS(=O)(=O)c1ccc(C(=O)Nc2ccc(Cl)c(-c3ccccn3)c2)c(Cl)c1 [VISMODEGIB]
How it was run: as §1

DECITABINE = compound: Nc1ncn([C@H]2C[C@H](O)[C@@H](CO)O2)c(=O)n1 [DECITABINE]
How it was run: as §1

FLUOROURACIL = compound: O=c1[nH]cc(F)c(=O)[nH]1 [FLUOROURACIL]
How it was run: as §1

RESVERATROL = compound: Oc1ccc(/C=C/c2cc(O)cc(O)c2)cc1 [RESVERATROL]
How it was run: as §1

Row | Test System | area under dose-response curve (17-AAG) | area under dose-response curve [1] | area under dose-response curve (SALINOMYCIN) | area under dose-response curve (ABT-737) | area under dose-response curve (FLAVOPIRIDOL) | area under dose-response curve (2-METHOXYESTRADIOL) | area under dose-response curve (NUTLIN3) | area under dose-response curve (DOXORUBICIN) | area under dose-response curve (LAPATINIB) | area under dose-response curve (VISMODEGIB) | area under dose-response curve (DECITABINE) | area under dose-response curve (FLUOROURACIL) | area under dose-response curve (RESVERATROL)
1 | A549 LUNG | 1.64 | 3.22 | 3.11 | 3.54 | 2.34 | 3.25 | 3.26 | 2.25 | 3.47 | 3.34 | 3.29 | 3.27 | 3.51
2 | C33A CERVIX | – | 2.88 | 2.96 | 3.38 | 2.27 | 2.91 | 3.13 | 1.46 | 2.92 | 3.15 | 3.03 | 3.66 | 3.17
3 | CAL51 BREAST | 1.92 | 2.86 | 3.01 | 3.4 | 1.92 | 2.99 | 3.17 | 1.48 | 3.37 | 3.09 | 2.92 | 3.05 | 3.35
4 | CAL72 BONE | 2.63 | 2.46 | 3.12 | 3.52 | 2.13 | 3.18 | 3.61 | 1.9 | 3.63 | 3.17 | 3.26 | 3.25 | 3.49
5 | CAL120 BREAST | 1.76 | 2.73 | 2.03 | 3.33 | 2.14 | 3 | 3.14 | 1.87 | 3.34 | 3.26 | 3.03 | 3.16 | 3.3
6 | CASKI CERVIX | 1.32 | 3.09 | 2.37 | 3.24 | 1.76 | 3.06 | 3.23 | 0.836 | 2.48 | 3.06 | 2.1 | 3.05 | 3.22
7 | COLO320DM LARGE INTESTINE | 2.98 | 3.53 | 2.89 | 3.69 | 2.06 | 2.88 | 4.13 | 3.07 | 3.66 | 3.45 | 3.27 | 2.87 | 3.54
8 | DU4475 BREAST | 1.26 | 2.52 | 2.43 | 2.54 | 1.69 | 2.52 | 3.2 | 0.979 | 3.33 | 3.21 | 1.99 | 3.34 | 3.25
9 | H23 LUNG | 1.66 | 3.28 | – | 3.5 | 2.33 | 3.11 | 3.42 | 1.79 | 2.77 | 3.43 | 2.74 | 3.28 | 3.42
10 | HCC1395 BREAST | 3.19 | 2.85 | – | 3.99 | – | 3.84 | 3.79 | – | 3.36 | 2.48 | 4.02 | 3.24 | 3.66
11 | HCC1806 BREAST | 0.894 | 3.58 | 2.77 | 3.72 | 2.06 | 3.46 | 3.55 | 1.3 | 3.15 | 3.23 | 1.27 | 3.09 | 3.7
12 | HCC1954 BREAST | 0.46 | 3.28 | 2.46 | 3.03 | 1.99 | 2.85 | 3.64 | 1.78 | 2.76 | 2.26 | 4.03 | 2.96 | 3.7
13 | HELA CERVIX | 2.37 | 3.33 | 3.17 | 3.64 | 2.54 | 3.11 | 3.38 | 1.69 | 3.7 | 3.49 | 3.41 | 3.55 | 3.64
14 | HOS BONE | 2.31 | – | 2.44 | 3.45 | 2.29 | 3.21 | 3.43 | 1.25 | 3.45 | 3.34 | 3.22 | 3.19 | 3.43
15 | HOSMNG BONE | 2.42 | 3.33 | 3.21 | 3.05 | 2.35 | 3.07 | 3.48 | 2.25 | 3.02 | 3.19 | 3.51 | 3.41 | 2.77
16 | HSSYII SYNOVIAL | 2.27 | 2.02 | 2.22 | 2.95 | 2.06 | 2.57 | 2.98 | 0.844 | 3.2 | 2.83 | 2.67 | 3.07 | 3.27
17 | HU09 BONE | 1.08 | 3.06 | 2.91 | 3.04 | 2.06 | 3.01 | 3.4 | 1.38 | 3.23 | 3.11 | 3.33 | 3.06 | 3.57
18 | JIMT1 BREAST | 1.58 | 3.25 | 2.96 | 3.44 | 2.19 | 3.13 | 3.38 | 2.21 | 3.27 | 3 | 2.86 | 3.03 | 3.4

Row | Test System | area under dose-response curve (17-AAG) | area under dose-response curve [1] | area under dose-response curve (SALINOMYCIN) | area under dose-response curve (ABT-737) | area under dose-response curve (FLAVOPIRIDOL) | area under dose-response curve (2-METHOXYESTRADIOL) | area under dose-response curve (NUTLIN3) | area under dose-response curve (DOXORUBICIN) | area under dose-response curve (LAPATINIB) | area under dose-response curve (VISMODEGIB) | area under dose-response curve (DECITABINE) | area under dose-response curve (FLUOROURACIL) | area under dose-response curve (RESVERATROL)
19 | KPD BONE | 1.75 | 3.24 | 2.62 | 3.2 | 2.05 | 3.16 | 3.29 | 1.78 | 3.44 | 3.27 | 2.08 | 3.27 | 3.44
20 | LM7 BONE | 1.46 | 3.22 | 3.08 | 3.48 | 2.3 | 3.02 | 3.39 | 1.78 | 3.39 | 3.28 | 3.06 | 2.96 | 3.63
21 | MCF7 BREAST | 1.92 | 2.89 | 2.78 | 3.27 | 2.18 | 2.89 | 2.87 | 1.99 | 3.11 | 2.99 | 2.83 | 2.99 | 3.21
22 | MDAMB134 BREAST | 1.91 | 2.92 | 3.52 | 3.13 | 2.96 | 2.73 | 3.16 | 2.35 | 3.79 | 2.56 | 3.67 | 2.74 | 3.44
23 | MDAMB231 BREAST | 2.14 | 3.28 | 2.97 | 3.28 | 2.26 | 3 | 3.31 | 2.1 | 3.27 | 3.04 | 3.17 | 3.13 | 3.26
24 | MDAMB361 BREAST | 1.34 | 2.94 | 2.72 | 2.84 | 2.59 | 2.61 | 2.83 | 2.58 | 2.68 | 2.31 | 3.03 | 2.28 | 2.99
25 | MDAMB436 BREAST | 1.77 | 2.96 | 1.74 | 3.13 | 2.13 | 3.01 | 2.99 | 2.04 | 3.11 | 2.81 | 3.1 | 2.81 | 3.36
26 | MFM223 BREAST | 1.07 | 2 | 2.35 | 4.23 | 2.3 | 3.08 | 3.57 | 2 | 3.48 | 3.12 | 3.65 | 2.92 | 3.94
27 | MG63 BONE | 2.62 | 2.88 | 2.67 | 3.59 | 2.39 | 3.27 | 3.4 | 1.9 | 3.5 | 3.19 | 1.88 | 3.26 | 3.52
28 | MHM BONE | 2.77 | 3.05 | 3.24 | 3.61 | 2.77 | 3.26 | 3.28 | 2.66 | 3.38 | 3.42 | 3.4 | 3.46 | 3.41
29 | PCI30 HEADNECK | 1.97 | 3.28 | 2.49 | 3.56 | 2.11 | 2.94 | 3.44 | 2.03 | 3.52 | 3.04 | 3.24 | 3.3 | 3.54
30 | SCC003 HEADNECK | 2.38 | 3.36 | 2.91 | 3.76 | 2.22 | – | 3.48 | 2.03 | 3.11 | 3.24 | 2.94 | 3.08 | 3.64
31 | SCC90 HEADNECK | 2.31 | 2.96 | 2.84 | 3.56 | 2.25 | 2.68 | 3.5 | 2.36 | 2.81 | 2.93 | 3.6 | 3.17 | –
32 | SKBR3 BREAST | 1.25 | 3.1 | 2.84 | 3.52 | 2.07 | 3.2 | 2.96 | 1.72 | 2.38 | 3.07 | 3.29 | 2.95 | 3.5
33 | SUM149 BREAST | 1.29 | – | 2.62 | 3.39 | 2.09 | 2.9 | 3.63 | 1.11 | 2.56 | 2.98 | 2.01 | 2.9 | 3.39
34 | SYO1 SYNOVIAL | 1.74 | 2.51 | 2.04 | 3 | 1.9 | 2.75 | 2.9 | 0.851 | 3.2 | 3 | 2.46 | 2.82 | 3.23
35 | T47D BREAST | 2.74 | 3.36 | 3.3 | 3.61 | 2.51 | 3.15 | 3.35 | 2.13 | 3.39 | 3.3 | 3.53 | 3.16 | 3.51
